The structures appear in SMILES notation.

This experiment addresses T1, human cathepsin B (Homo sapiens, UniProt P07858).
T1 construct: Cathepsin B purified from human liver (Sigma-Aldrich, St. Louis, MO, USA); purchased Sigma-Aldrich; host or cells: human liver
Briefly: Fluorogenic cathepsin-cleavage assay (Z-RR-AMC). The experiment is classed as biochemical. As to conditions: recombinant cathepsin B, in vitro. The text has this: The fluorogenic cathepsin-cleavage assay was done as previously described using the cathepsin B cleavage substrate Z-Arg-Arg-7-amido-4-methylcoumarin hydrochloride (Z-RR-AMC; Sigma-Aldrich, St. Louis, MO, USA) and human cathepsin B with or without the cathepsin inhibitor CA-074Me (EMD Millipore, Burlington, MA, USA).

As to `CCCNC(=O)[C@H]1O[C@@H]1C(=O)N[C@H](C(=O)N1CCC[C@H]1C(=O)OC)[C@@H](C)CC` [CA-074Me], the “inhibition of cathepsin B cleavage of fluorogenic reporter substrate” value is “blocked reporter substrate cleavage”.

These data come from paper PMC6719084, “Activating the Intrinsic Pathway of Apoptosis Using BIM BH3 Peptides Delivered by Peptide Amphiphiles with Endosomal Release” (Materials, 2019).
